Assay results from ChEMBL document CHEMBL5390253, “Discovery of Selective and Potent Macrocyclic CDK9 Inhibitors for the Treatment of Osimertinib-Resistant Non-Small-Cell Lung Cancer” (J Med Chem, 2023).
Active and inactive are the calls of the source. No cut-off for these calls is given here.

What was measured:
[1] = Induction of apoptosis in human Osimertinib-resistant NCI-H1975 cell assessed as late apoptotic cells at 2000 nM measured after 16 hrs by Annexin V-FITC and PI staining based analysis (reference value: 2.84%); format: functional
[2] = Downregulation of Mcl-1 in human NCI-H1975 cells at 500 nM relative to control; format: functional
[3] = biological target: Cyclin-dependent kinase 5/CDK5 activator 1 (Homo sapiens) (UniProt Q00535+Q15078); experiment: Inhibition of CDK5/p35NCK (unknown origin) at 200 nM preincubated for 10 mins followed by substrate addition and measured after 60 mins in presence of ATP by ADP-Glo reagent based assay relative to control; format: protein-complex assay; settings: time 70.0 min
[4] = biological target: CDK9/cyclin T1 (Homo sapiens) (UniProt O60563+P50750); experiment: Inhibition of CDK9/cyclin T1 (unknown origin) at 200 nM preincubated for 10 mins followed by substrate addition and measured after 60 mins in presence of ATP by ADP-Glo reagent based assay relative to control; format: protein-complex assay; settings: time 70.0 min
[5] = Toxicity in ICR mouse assessed as abnormalities in heart at 1000 mg/kg, po measured after 9 days by H and E staining based analysis; format: organism-based; settings: in vivo, 216 h, time 9 day
[6] = biological target: Cyclin-Y/Cyclin-dependent kinase 16 (Homo sapiens) (UniProt Q00536+Q8ND76); experiment: Inhibition of CDK16/cyclin Y (unknown origin) at 200 nM preincubated for 10 mins followed by substrate addition and measured after 60 mins in presence of ATP by ADP-Glo reagent based assay relative to control; format: protein-complex assay; settings: time 70.0 min
NCI-H1975 [7] = experiment: Downregulation of Bcl-2 level in human Osimertinib-resistant NCI-H1975 cell at 125 nM measured after 16 hrs in presence of osimertinib by Western blot analysis; format: functional, cell-based
CDK2/Cyclin A2 = CDK2/Cyclin A2 (Homo sapiens, UniProt P24941); experiment: Inhibition of CDK2/Cyclin A2 (unknown origin) preincubated for 10 mins followed by substrate addition and measured after 60 mins in presence of ATP by ADP-Glo reagent based assay; format: protein-complex assay
[8] = Toxicity in ICR mouse assessed as effect on body weight loss at 1000 mg/kg, po measured for 8 to 9 days; format: organism-based; settings: in vivo, time 8-9 day
NCI-H1975 [9] = experiment: Downregulation of Mcl-1 level in human Osimertinib-resistant NCI-H1975 cell measured after 8 hrs by Western blotting analysis; format: functional, cell-based; settings: dose 0.05-2 µM
[10] = Antitumor activity against patient derived #0243 lung cancer organoid assessed as inhibition of growth measured after 4 days; format: functional, tissue-based; settings: Homo sapiens, 96 h
[11] = Toxicity in ICR mouse assessed as morphological changes in heart at 1000 mg/kg, po measured after 9 days by H and E staining based analysis; format: organism-based; settings: in vivo, 216 h, time 9 day
[12] = Toxicity in ICR mouse assessed as abnormalities in spleen at 1000 mg/kg, po measured after 9 days by H and E staining based analysis; format: organism-based; settings: in vivo, 216 h, time 9 day
HCC827 = experiment: Antiproliferative activity against human HCC827 cells incubated for 72 hrs by MTT assay; format: functional, cell-based; settings: HCC827, 72 h
NCI-H1975 [13] = experiment: Downregulation of cleaved caspase-3 level in human Osimertinib-resistant NCI-H1975 cell at 125 nM measured after 16 hrs in presence of osimertinib by Western blot analysis; format: functional, cell-based
[14] = Induction of apoptosis in human Osimertinib-resistant NCI-H1975 cell assessed as necrotic cells at 500 nM measured after 16 hrs by Annexin V-FITC and PI staining based analysis (reference value: 0.50%); format: functional
[15] = Antitumor activity against patient derived #0085 lung cancer organoid assessed as inhibition of growth measured after 4 days; format: functional, tissue-based; settings: Homo sapiens, 96 h
[16] = biological target: Dual specificity protein kinase CLK2 (Homo sapiens) (UniProt P49760); experiment: Inhibition of CLK2 (unknown origin) at 100 nM preincubated for 10 mins followed by substrate addition and measured after 60 mins in presence of ATP by ADP-Glo reagent based assay relative to control; settings: time 70.0 min
NCI-H1975 [17] = experiment: Downregulation of Mcl-1 mRNA expression in human Osimertinib-resistant NCI-H1975 cell at 0.1 to 1.0 uM measured after 8 hrs by qPCR analysis; format: functional, cell-based; settings: dose 0.1-1 µM
[18] = biological target: Interleukin-1 receptor-associated kinase 1 (Homo sapiens) (UniProt P51617); experiment: Inhibition of IRAK1 (unknown origin) at 500 nM preincubated for 10 mins followed by substrate addition and measured after 60 mins in presence of ATP by ADP-Glo reagent based assay relative to control; settings: time 70.0 min
[19] = Induction of apoptosis in human Osimertinib-resistant NCI-H1975 cell assessed as late apoptotic cells at 500 nM measured after 16 hrs by Annexin V-FITC and PI staining based analysis (reference value: 2.84%); format: functional
NCI-H1975 [20] = experiment: Downregulation of cleaved PARP level in human Osimertinib-resistant NCI-H1975 cell at 125 nM measured after 16 hrs in presence of osimertinib by Western blot analysis; format: functional, cell-based
[21] = biological target: CDK6/cyclin D3 (Homo sapiens) (UniProt P30281+Q00534); experiment: Inhibition of CDK6/cyclin D3 (unknown origin) at 200 nM preincubated for 10 mins followed by substrate addition and measured after 60 mins in presence of ATP by ADP-Glo reagent based assay relative to control; format: protein-complex assay; settings: time 70.0 min
[22] = Apparent volume of distribution in Sprague-Dawley rat at 2 mg/kg, iv measured upto 24 hrs; format: ADME, organism-based; settings: in vivo, read-out: Vz
[23] = Induction of apoptosis in human Osimertinib-resistant NCI-H1975 cell assessed as viable cells at 125 nM measured after 16 hrs in presence of osimertinib by Annexin V-FITC and PI staining based analysis (reference value: 94.9%); format: functional; settings: read-out: Activity
[24] = biological target: CDK2/Cyclin A2 (Homo sapiens) (UniProt P24941+P20248); experiment: Inhibition of CDK2/Cyclin A2 (unknown origin) at 200 nM preincubated for 10 mins followed by substrate addition and measured after 60 mins in presence of ATP by ADP-Glo reagent based assay relative to control; format: protein-complex assay; settings: time 70.0 min
[25] = biological target: Mitogen-activated protein kinase 15 (Homo sapiens) (UniProt Q8TD08); experiment: Inhibition of ERK7 (unknown origin) at 500 nM preincubated for 10 mins followed by substrate addition and measured after 60 mins in presence of ATP by ADP-Glo reagent based assay relative to control; settings: time 70.0 min
[26] = Antiproliferative activity against 3D-cultured human Osimertinib-resistant NCI-H1975 cell incubated for 72 hrs by MTT assay; format: functional, cell-based; settings: NCI-H1975, 72 h
[27] = Toxicity in ICR mouse assessed as effect on physical appearance at 100 mg/kg, iv measured for 8 to 9 days; format: organism-based; settings: in vivo, time 8-9 day
[28] = Induction of apoptosis in human Osimertinib-resistant NCI-H1975 cell assessed as early apoptotic cells at 2000 nM measured after 16 hrs by Annexin V-FITC and PI staining based analysis (reference value: 1.78%); format: functional
[29] = biological target: CDK1/Cyclin E (Homo sapiens) (UniProt P06493+P24864); experiment: Inhibition of CDK1/Cyclin E1 (unknown origin) at 200 nM preincubated for 10 mins followed by substrate addition and measured after 60 mins in presence of ATP by ADP-Glo reagent based assay relative to control; format: protein-complex assay; settings: time 70.0 min
Chain of CDK1/Cyclin E (Homo sapiens) (P06493 whole entry, looked up): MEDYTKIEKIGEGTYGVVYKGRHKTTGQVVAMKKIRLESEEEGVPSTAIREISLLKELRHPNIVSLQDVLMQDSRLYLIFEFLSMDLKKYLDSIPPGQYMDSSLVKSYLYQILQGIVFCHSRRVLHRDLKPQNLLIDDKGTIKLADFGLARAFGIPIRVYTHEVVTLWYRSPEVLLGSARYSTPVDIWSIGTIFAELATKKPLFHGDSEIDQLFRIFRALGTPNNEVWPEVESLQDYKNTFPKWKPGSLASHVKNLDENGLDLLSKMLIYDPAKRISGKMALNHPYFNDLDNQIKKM
Chain of CDK1/Cyclin E (Homo sapiens) (P24864 whole entry, looked up): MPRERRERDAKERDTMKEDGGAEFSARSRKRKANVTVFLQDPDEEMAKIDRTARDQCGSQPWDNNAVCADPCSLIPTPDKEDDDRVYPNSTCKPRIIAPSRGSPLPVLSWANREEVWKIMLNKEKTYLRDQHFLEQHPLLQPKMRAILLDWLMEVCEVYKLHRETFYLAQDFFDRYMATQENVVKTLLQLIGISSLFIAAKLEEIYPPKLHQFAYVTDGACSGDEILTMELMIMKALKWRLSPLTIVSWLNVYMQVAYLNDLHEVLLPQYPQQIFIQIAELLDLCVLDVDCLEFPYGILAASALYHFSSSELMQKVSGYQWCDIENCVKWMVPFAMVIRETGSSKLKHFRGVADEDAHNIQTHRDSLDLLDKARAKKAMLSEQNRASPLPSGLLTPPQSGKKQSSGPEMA

Chain of Interleukin-1 receptor-associated kinase 1 (Homo sapiens) (P51617 whole entry, looked up): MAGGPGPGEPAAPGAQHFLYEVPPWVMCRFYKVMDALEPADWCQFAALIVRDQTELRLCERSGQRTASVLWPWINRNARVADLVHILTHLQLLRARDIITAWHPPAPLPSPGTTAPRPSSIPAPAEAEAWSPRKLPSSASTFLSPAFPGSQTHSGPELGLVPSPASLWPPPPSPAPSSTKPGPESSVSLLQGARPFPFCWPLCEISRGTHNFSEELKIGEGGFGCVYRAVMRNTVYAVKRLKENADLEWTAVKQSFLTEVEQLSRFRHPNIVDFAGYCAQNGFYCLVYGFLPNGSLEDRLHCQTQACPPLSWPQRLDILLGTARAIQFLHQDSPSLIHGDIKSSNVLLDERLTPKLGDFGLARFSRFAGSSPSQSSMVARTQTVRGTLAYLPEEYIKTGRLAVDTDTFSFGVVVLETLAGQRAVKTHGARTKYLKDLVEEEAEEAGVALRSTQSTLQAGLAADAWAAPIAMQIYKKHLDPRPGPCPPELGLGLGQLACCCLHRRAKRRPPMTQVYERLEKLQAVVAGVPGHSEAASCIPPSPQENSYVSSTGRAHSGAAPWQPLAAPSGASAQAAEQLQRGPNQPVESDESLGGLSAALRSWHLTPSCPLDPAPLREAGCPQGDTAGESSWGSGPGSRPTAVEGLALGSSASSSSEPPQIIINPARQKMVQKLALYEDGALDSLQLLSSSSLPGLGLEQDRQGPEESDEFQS
Chain of Cyclin-dependent kinase 5/CDK5 activator 1 (Homo sapiens) (Q00535 whole entry): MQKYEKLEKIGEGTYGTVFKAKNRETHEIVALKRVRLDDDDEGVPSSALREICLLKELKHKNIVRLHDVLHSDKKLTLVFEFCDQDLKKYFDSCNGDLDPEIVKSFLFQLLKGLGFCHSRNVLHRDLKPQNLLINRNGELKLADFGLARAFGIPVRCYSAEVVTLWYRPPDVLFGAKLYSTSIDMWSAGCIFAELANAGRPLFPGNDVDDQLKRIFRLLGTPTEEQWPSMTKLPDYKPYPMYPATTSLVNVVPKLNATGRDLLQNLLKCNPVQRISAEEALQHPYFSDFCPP
Chain of Cyclin-dependent kinase 5/CDK5 activator 1 (Homo sapiens) (Q15078 99-307 partner limits assumed): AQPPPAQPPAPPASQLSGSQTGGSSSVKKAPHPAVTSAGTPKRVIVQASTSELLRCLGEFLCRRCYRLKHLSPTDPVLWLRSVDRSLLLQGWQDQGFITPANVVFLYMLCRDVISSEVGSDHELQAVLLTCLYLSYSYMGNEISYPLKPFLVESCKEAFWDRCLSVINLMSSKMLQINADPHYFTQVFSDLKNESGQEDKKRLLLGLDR
Chain of Dual specificity protein kinase CLK2 (Homo sapiens) (P49760 whole entry, looked up): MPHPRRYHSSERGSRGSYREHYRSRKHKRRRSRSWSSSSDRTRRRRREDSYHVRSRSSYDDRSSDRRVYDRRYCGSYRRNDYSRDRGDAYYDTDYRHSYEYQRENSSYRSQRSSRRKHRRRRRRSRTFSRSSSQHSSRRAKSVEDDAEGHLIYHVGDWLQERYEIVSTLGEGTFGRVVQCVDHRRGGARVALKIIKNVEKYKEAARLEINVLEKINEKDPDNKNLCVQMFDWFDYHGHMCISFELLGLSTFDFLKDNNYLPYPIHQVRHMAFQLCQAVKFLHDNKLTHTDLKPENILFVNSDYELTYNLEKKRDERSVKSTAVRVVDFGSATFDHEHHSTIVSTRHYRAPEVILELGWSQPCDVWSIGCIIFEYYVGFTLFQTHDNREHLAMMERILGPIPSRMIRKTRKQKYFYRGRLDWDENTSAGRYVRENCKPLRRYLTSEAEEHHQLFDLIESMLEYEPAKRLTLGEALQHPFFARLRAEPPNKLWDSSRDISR
Chain of Mitogen-activated protein kinase 15 (Homo sapiens) (Q8TD08 whole entry): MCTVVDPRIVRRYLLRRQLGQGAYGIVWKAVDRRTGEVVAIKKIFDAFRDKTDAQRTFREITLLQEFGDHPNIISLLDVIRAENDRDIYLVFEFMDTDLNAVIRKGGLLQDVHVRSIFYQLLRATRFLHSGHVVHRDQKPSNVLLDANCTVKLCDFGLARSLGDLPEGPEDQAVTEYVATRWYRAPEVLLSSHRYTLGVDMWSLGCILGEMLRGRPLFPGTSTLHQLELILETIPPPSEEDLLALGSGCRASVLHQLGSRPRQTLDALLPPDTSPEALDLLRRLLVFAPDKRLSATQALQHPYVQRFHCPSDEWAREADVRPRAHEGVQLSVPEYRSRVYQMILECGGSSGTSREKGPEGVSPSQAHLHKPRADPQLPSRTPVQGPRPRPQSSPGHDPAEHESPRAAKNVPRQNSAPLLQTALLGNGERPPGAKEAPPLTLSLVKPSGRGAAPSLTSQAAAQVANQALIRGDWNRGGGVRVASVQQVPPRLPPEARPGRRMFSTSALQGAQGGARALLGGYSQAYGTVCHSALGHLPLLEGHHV

`O=C(NCCN1CCOCC1)c1ccc2cc1OCCCCCCOc1cc(ccc1F)-c1nc(ncc1F)N2` gave an Activity [1] of 13.7%, an Activity [2] of 75.6% and an inhibition [3] of 16.3%. For the same compound, the inhibition [4] was 99.3%, the Activity [5] was “Non-Toxic” and the inhibition [6] was 25.9%. For the same compound, the Activity (NCI-H1975 [7]) was “Active”, the IC50 (CDK2/Cyclin A2) was 209 nM and the Activity [8] was “Non-Toxic”. For the same compound, the Activity (NCI-H1975 [9]) was “Dose-Dependent Effect”, the IC50 [10] was 120 nM and the Activity [11] was “Non-Toxic”. For the same compound, the Activity [12] was “Non-Toxic”, the IC50 (HCC827) was 315 nM and the Activity (NCI-H1975 [13]) was “Active”. It also gave an Activity [14] of 2.92%, an IC50 [15] of 130 nM and an inhibition [16] of 32.8%. For the same compound, the Activity (NCI-H1975 [17]) was “Active”, the inhibition [18] was 73.5% and the Activity [19] was 7.02%. For the same compound, the Activity (NCI-H1975 [20]) was “Active”, the inhibition [21] was 11.6% and the Vd [22] was 12 L/kg. The viability at 0.125 µM [23] was 78.3%, the inhibition [24] was 39.1% and the inhibition [25] was 83.5%. The IC50 [26] was under 50 nM, the Activity [27] was “Non-Toxic” and the Activity [28] was 18.9%. It also gave an inhibition [29] of 16.4%.
